Reference: article PMC3954981 (Bioorganic & medicinal chemistry, 2014)
Like-named read-outs stand apart in the source and are kept apart here. Each block holds one compound with its values, some of them ahead of it.

What was measured:
PADs 1, 2, 3, and 4 = experiment: Library screening, inhibition of the PADs described in words; format: biochemical, human; details: 10 μM, PADs 1–4
PADs = details: second generation mechanism-based inactivator; cited from earlier work
NIH 3T3 cells = experiment: XTT cell viability assay; details: 10 μM, 3 days
PAD3 [1] = target: T1, PAD3 (Homo sapiens, UniProt Q9ULW8); experiment: Inactivation kinetics; format: biochemical; details: read-out: kinact/KI (apparent), PAD3
T1 sequence (Q9ULW8 1-664): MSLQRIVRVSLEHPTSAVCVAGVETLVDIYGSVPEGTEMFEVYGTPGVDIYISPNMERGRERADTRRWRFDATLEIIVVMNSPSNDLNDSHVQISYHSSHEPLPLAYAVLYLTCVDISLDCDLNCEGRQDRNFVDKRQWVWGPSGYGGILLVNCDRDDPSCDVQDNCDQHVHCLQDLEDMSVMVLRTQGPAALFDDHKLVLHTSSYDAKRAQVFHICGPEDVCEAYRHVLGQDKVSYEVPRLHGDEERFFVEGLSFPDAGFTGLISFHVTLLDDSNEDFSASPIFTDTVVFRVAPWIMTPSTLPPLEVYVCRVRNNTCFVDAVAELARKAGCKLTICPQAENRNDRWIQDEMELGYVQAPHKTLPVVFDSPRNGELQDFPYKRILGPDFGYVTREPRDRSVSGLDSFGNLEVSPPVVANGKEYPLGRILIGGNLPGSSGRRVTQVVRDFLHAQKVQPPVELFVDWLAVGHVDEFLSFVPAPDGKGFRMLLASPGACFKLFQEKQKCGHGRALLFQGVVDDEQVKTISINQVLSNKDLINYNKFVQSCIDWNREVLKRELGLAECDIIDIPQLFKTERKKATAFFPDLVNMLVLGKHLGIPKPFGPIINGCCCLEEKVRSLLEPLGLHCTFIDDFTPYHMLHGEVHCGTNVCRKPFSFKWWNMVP

PAD4 [2] = target: T2, PAD4 (Homo sapiens, UniProt Q9UM07); experiment: Inactivation kinetics; format: biochemical
PAD1 [3] = target: T3, PAD1 (Homo sapiens, UniProt Q9ULC6); experiment: Inactivation kinetics; format: biochemical; details: read-out: kinact/KI (apparent), PAD1
T3 sequence (Q9ULC6 1-663): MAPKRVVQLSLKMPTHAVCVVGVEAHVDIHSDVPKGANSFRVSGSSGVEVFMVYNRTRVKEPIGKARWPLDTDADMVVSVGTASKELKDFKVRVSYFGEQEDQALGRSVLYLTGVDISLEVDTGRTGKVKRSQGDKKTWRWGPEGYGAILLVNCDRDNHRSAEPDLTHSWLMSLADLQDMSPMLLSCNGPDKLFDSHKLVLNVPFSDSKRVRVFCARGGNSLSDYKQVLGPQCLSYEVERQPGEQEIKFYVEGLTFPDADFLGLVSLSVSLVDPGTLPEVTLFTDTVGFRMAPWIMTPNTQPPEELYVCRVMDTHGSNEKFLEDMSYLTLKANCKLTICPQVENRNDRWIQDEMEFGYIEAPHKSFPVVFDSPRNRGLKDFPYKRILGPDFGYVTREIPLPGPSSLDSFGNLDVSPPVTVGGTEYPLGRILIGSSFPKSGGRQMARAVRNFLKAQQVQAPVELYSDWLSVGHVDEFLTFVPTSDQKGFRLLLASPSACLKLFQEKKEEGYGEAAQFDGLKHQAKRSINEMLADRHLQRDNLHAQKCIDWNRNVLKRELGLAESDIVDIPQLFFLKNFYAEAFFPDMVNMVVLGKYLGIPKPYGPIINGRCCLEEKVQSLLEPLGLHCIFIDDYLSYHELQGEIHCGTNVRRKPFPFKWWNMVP

PAD4 [4] = target: T2, PAD4; experiment: Irreversibility study; format: biochemical; details: for recovery of PAD4 enzymatic activity after dialysis: 100 μM compound, 1 h, dialysis overnight
PAD2 [5] = target: T4, PAD2 (Homo sapiens, UniProt Q9Y2J8); experiment: Inactivation kinetics; format: biochemical
U2OS cells = experiment: XTT cell viability assay; details: 10 μM, 3 days
PAD4 [6] = target: T2, PAD4; experiment: Gel-based competitive ABPP with RFA; format: binding; details: RFA 10 μM, PAD4 2 μM, inhibitor 0–50 μM
WT-PAD4 = WT-PAD4 (Homo sapiens, UniProt Q9UM07); experiment: MALDI-MS analysis of inhibitor-treated enzyme; format: binding; details: 1:10 enzyme:inhibitor, 1 h, WT-PAD4 3 μM
PAD4 [7] = target: T2, PAD4; details: cited from earlier work
PAD2 [8] = target: T4, PAD2; experiment: MALDI-MS analysis of inhibitor-treated enzyme; format: binding; details: 1:10 enzyme:inhibitor, 1 h, PAD2 3 μM
PAD4 C645A = PAD4 C645A (Homo sapiens, UniProt Q9UM07, C645A); experiment: MALDI-MS analysis of inhibitor-treated enzyme; format: binding; details: 1:10 enzyme:inhibitor, 1 h, PAD4 C645A 5 μM
PAD2 [9] = target: T4, PAD2; experiment: Gel-based competitive ABPP with RFA; format: binding; details: RFA 10 μM, PAD2 2 μM, inhibitor 0–50 μM
PAD4 [10] = target: T2, PAD4; experiment: Substrate; format: biochemical; details: inactivator 0.5 μM; BAEE 2 mM and 10 mM
PAD2 [11] = target: T4, PAD2; experiment: Irreversibility study; format: biochemical; details: 170-fold excess of 17, dialyzed 20 h
PAD3 [12] = target: T1, PAD3; experiment: Irreversibility study; format: biochemical; details: 170-fold excess of 17, dialyzed 20 h
PAD1 [13] = target: T3, PAD1; experiment: Irreversibility study; format: biochemical; details: 170-fold excess of 17, dialyzed 20 h
[14] = read-out: kinact/KI (apparent), PAD4
[15] = read-out: kinact/KI (apparent), PAD2

T2 sequence (Q9UM07 whole entry): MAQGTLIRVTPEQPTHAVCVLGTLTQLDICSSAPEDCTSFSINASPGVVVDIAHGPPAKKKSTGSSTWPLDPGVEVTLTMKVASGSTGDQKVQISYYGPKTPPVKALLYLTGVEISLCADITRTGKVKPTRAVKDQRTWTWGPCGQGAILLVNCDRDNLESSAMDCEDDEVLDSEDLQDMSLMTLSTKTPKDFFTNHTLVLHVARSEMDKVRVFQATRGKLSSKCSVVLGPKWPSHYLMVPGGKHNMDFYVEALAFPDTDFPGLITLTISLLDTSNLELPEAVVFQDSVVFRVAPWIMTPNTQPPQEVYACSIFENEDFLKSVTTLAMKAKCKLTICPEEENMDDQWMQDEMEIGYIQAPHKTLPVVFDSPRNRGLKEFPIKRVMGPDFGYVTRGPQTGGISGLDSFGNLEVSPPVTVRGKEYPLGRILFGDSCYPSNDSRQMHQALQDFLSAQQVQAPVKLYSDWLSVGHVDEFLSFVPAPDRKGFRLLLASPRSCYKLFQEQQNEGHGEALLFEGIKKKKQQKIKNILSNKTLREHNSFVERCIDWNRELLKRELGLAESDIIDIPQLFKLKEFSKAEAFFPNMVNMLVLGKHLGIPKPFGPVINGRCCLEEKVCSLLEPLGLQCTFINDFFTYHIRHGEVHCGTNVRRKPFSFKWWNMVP
T4 sequence (Q9Y2J8 whole entry): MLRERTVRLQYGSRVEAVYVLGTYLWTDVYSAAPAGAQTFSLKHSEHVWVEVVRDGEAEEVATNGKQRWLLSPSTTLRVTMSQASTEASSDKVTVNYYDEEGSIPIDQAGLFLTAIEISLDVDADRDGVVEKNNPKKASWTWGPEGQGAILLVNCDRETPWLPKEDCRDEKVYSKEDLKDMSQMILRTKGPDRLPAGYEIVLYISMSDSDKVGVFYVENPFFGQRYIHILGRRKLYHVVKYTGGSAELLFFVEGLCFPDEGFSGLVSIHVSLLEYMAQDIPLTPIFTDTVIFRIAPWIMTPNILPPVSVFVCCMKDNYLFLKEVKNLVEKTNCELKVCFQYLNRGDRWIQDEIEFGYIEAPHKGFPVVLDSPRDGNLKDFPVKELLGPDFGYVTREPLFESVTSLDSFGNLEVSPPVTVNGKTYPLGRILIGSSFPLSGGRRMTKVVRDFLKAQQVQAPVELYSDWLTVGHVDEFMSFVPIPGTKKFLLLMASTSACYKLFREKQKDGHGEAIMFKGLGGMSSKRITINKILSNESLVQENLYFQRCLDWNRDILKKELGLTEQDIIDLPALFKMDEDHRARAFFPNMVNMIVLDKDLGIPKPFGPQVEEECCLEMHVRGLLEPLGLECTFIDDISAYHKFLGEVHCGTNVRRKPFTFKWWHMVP
Chain of WT-PAD4 (Q9UM07 whole entry): as the sequence (Q9UM07 whole entry) above
Chain of PAD4 C645A (Q9UM07 whole entry C645A): as the sequence (Q9UM07 whole entry) above, with C645A counted along it

Structure (SMILES): CCOC(=O)c1nc(C(=O)OCC)c(C(=O)OCC)c(-c2ccc(OC)c(OC)c2OCc2ccccc2)c1C [Compound 7]
inhibition of the PADs (in words) (PADs 1, 2, 3, and 4): little to no inhibition

Structure (SMILES): COC(=O)c1nnc(C(=O)OC)c(-c2ccc3cc(OC)ccc3n2)n1 [Compound 26]
inhibition of the PADs (in words) (PADs 1, 2, 3, and 4): no inhibition

Structure (SMILES): COC(=O)c1cc(-c2ccccc2)c(C(=O)OC)c(-c2ccc3ccccc3n2)n1 [Compound 24]
inhibition of the PADs (in words) (PADs 1, 2, 3, and 4): no inhibition

Structure (SMILES): COC(=O)c1nnc(C(=O)OC)c(-c2ccc3c([N+](=O)[O-])c(OC)ccc3n2)n1 [Compound 25]
inhibition of the PADs (in words) (PADs 1, 2, 3, and 4): no inhibition

Structure (SMILES): CC(=O)N[C@H](C(=O)N[C@@H](CC(=O)O)C(=O)N[C@@H](CCCN=C(N)CF)C(N)=O)[C@@H](C)O [Thr-Asp-F-amidine (TDFA), Thr-Asp-F-amidine]
kinact/KI (PADs): 26,000 M^−1min^−1

Structure (SMILES): COc1ccc2ncccc2c1[N+](=O)[O-] [Compound 29]
inhibition of the PADs (in words) (PADs 1, 2, 3, and 4): no inhibition

Structure (SMILES): COC(=O)c1nc(C(=O)OC)c(N)c(-c2ccccc2Br)c1C [Compound 8]
inhibition of the PADs (in words) (PADs 1, 2, 3, and 4): little to no inhibition

kinact/KI (PAD3 [1]): 25 M⁻¹ s⁻¹ | kinact/KI (PAD4 [2]; [14]): 81.7 M⁻¹ s⁻¹ | kinact/KI (PAD1 [3]): 60 M⁻¹ s⁻¹ | recovery of PAD4 enzymatic activity after dialysis (PAD4 [4]): little to no activity is recovered | kinact/KI (PAD2 [5]; [15]): 63.3 M⁻¹ s⁻¹
Structure (SMILES): COC1=C(Br)C(=O)c2ncccc2C1=O [Compound 10]
cells remaining viable, NIH 3T3 (NIH 3T3 cells): retain significant viability | inhibition of the PADs (in words) (PADs 1, 2, 3, and 4): strong inhibition | cells remaining viable, U2OS (U2OS cells): retain significant viability

Structure (SMILES): COC(=O)c1cccc(-c2ccc3ccc(Br)c(O)c3n2)n1 [Compound 5]
inhibition of the PADs (in words) (PADs 1, 2, 3, and 4): no inhibition

Structure (SMILES): O=C(O)c1cccc(-c2ccc3ccc(Br)c(OCc4ccccc4)c3n2)n1 [Compound 23]
inhibition of the PADs (in words) (PADs 1, 2, 3, and 4): no inhibition

kinact/KI (PAD3 [1]): 51.7 M⁻¹ s⁻¹ | kinact/KI (PAD4 [2]; [14]): 93.3 M⁻¹ s⁻¹ | kinact/KI (PAD1 [3]): 76.7 M⁻¹ s⁻¹ | recovery of PAD4 enzymatic activity after dialysis (PAD4 [4]): little to no activity is recovered | kinact/KI (PAD2 [5]; [15]): 86.7 M⁻¹ s⁻¹
Structure (SMILES): NC1=CC(=O)c2cccnc2C1=O [Compound 14]
inhibition of the PADs (in words) (PADs 1, 2, 3, and 4): strong inhibition

Structure (SMILES): COC1=C(N)C(=O)c2nc(-c3nc(C(=O)O)c(C)c(-c4ccc(OC)c(OC)c4O)c3N)ccc2C1=O [Streptonigrin, reference compound]
labeling of PAD4 by RFA (PAD4 [6]): decreased the labeling | mass shift of WT-PAD4 (Δ Da) (WT-PAD4): 710 Da | preferential inhibition of PAD4 versus PAD1 (PAD4 [7]): 119 fold | preferential inhibition of PAD4 versus PAD2 (PAD4 [7]): 37 fold | preferential inhibition of PAD4 versus PAD3 (PAD4 [7]): 126 fold | mass shift of PAD2 (PAD2 [8]): 469 Da | mass shift of PAD4 C645A (Δ Da) (PAD4 C645A): 924 Da | labeling of PAD2 by RFA (PAD2 [9]): decreased the labeling

Structure (SMILES): NC1=C(N)C(=O)c2ccccc2C1=O [Compound 19]
inhibition of the PADs (PADs 1, 2, 3, and 4): ~ 50%

kinact/KI (PAD3 [1]): 30 M⁻¹ s⁻¹ | kinact/KI (PAD4 [2]; read-out: kinact/KI, PAD4): 95 M⁻¹ s⁻¹ | kinact/KI (PAD1 [3]): 53.3 M⁻¹ s⁻¹ | labeling of PAD4 by RFA (PAD4 [6]): prevent labeling | mass shift of WT-PAD4 (Δ Da) (WT-PAD4): 692 Da | mass shift of PAD2 (PAD2 [8]): 324 Da | recovery of PAD4 enzymatic activity after dialysis (PAD4 [4]): little to no activity is recovered | kinact (PAD2 [5]; read-out: kinact, PAD2): 0.00117 s⁻¹ | kinact/KI (PAD2 [5]; read-out: kinact/KI, PAD2): 138 M⁻¹ s⁻¹ | mass shift of PAD4 C645A (Δ Da) (PAD4 C645A): 737 Da | substrate protection against inactivation of PAD4 (PAD4 [10]): little substrate protection was observed | labeling of PAD2 by RFA (PAD2 [9]): prevent labeling
Structure (SMILES): NC1=CC(=O)c2ccc(-c3ccccn3)nc2C1=O [Compound 3]
inhibition of the PADs (in words) (PADs 1, 2, 3, and 4): strong inhibition

Structure (SMILES): COc1ccc2nc(C#N)ccc2c1 [Compound 30]
inhibition of the PADs (in words) (PADs 1, 2, 3, and 4): no inhibition

Structure (SMILES): COC(=O)c1nc(C(=O)OC)c(NC(C)=O)c(-c2ccccc2Br)c1C [Compound 6]
inhibition of the PADs (in words) (PADs 1, 2, 3, and 4): little to no inhibition

Structure (SMILES): COC(=O)c1nc(C(C)=O)c2[nH]c3ccccc3c2c1C [Compound 4]
inhibition of the PADs (in words) (PADs 1, 2, 3, and 4): little to no inhibition

Structure (SMILES): NC1=CC(=O)c2ccc(-c3cc(C(=O)O)ccc3N)nc2C1=O [Compound 22]
inhibition of the PADs (in words) (PADs 1, 2, 3, and 4): loss in potency

PAD2 activity regained after dialysis (PAD2 [11]): Little to no activity was regained | labeling of PAD4 by RFA (PAD4 [6]): prevent labeling | PAD3 activity regained after dialysis (PAD3 [12]): Little to no activity was regained | recovery of PAD4 enzymatic activity after dialysis (PAD4 [4]): little to no activity is recovered | PAD4 activity regained after dialysis (PAD4 [4]; 170-fold excess of 17, dialyzed 20 h): Little to no activity was regained | PAD1 activity regained after dialysis (PAD1 [13]): Little to no activity was regained | labeling of PAD2 by RFA (PAD2 [9]): prevent labeling
Structure (SMILES): NC1=CC(=O)c2ccc(-c3cccc(C(=O)O)n3)nc2C1=O [Compound 17]
cells remaining viable, NIH 3T3 (NIH 3T3 cells): retain significant viability | inhibition of the PADs (in words) (PADs 1, 2, 3, and 4): strong inhibition | cells remaining viable, U2OS (U2OS cells): retain significant viability
